Source: the NIST ThermoML archive (doi:10.1021/je1012857)
± gives the expanded uncertainty stated by the source.

Conditions: 298.15 K, 101.33 kPa, Liquid; for viscosity: Capillary tube (Ostwald / Ubbelohde) method; for speed of sound: Sing-around technique in a fixed-path interferometer

mass density | viscosity | speed of sound | Compound
798.104 ± 1 kg/m3 | 3.307 ± 0.025 mPa·s | 1188.8 ± 1.3 m/s | CC(C)CO [2-methyl-1-propanol]
805.953 ± 0.47 kg/m3 | 2.565 ± 0.016 mPa·s | 1241.1 ± 1 m/s | CCCCO [butan-1-ol]
892.389 ± 0.75 kg/m3 | 1.405 ± 0.012 mPa·s | 1671.6 ± 1.4 m/s | NCCN [ethane-1,2-diamine]
781.051 ± 0.51 kg/m3 | 2.063 ± 0.013 mPa·s | 1140.4 ± 0.9 m/s | CC(C)O [propan-2-ol]
